{"source": "patent US20090047243A1", "about": "“COMBINATIONS FOR THE TREATMENT OF B-CELL PROLIFERATIVE DISORDERS” (priority 2007, published 2009)", "key": {"[1]": {"test_system": "human multiple myeloma cells (MM.1S)", "test": "Anti-proliferation assay (ATPLite, 72 h)", "type": "cell-based", "parameters": "key to synergy score / synergy (score), PDEi × HE-NECA: S = lnfX·lnfY·ΣIdata(Idata−ILoewe), volume over Loewe additivity", "how_it_was_run": "(§1)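 ATPLite luminescence readout; ANBL6 medium + 10 ng/ml IL-6. Single agents tested at 12 concentrations, 2- or 3-fold serial dilutions. % inhibition vs untreated-well mean.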"}, "[2]": {"test_system": "RPMI-8226, H929, MM.1S and MM.1R MM cell lines", "test": "Anti-proliferation assay, statements across MM cell lines", "type": "cell-based, human", "settings": "crossed with adenosine receptor agonists", "procedure": "The MM.1S, MM.1R, H929, MOLP-8, EJM, INA-6, ANBL6, KSM-12-PE, OPM2, and RPMI-8226 multiple myeloma cell lines, as well as the Burkitt's lymphoma cell line GA-10 and the non-Hodgkin's lymphoma cell lines Farage, SU-DHL6, and Karpas 422 were cultured at 37° C. and 5% CO2 in RPMI-1640 media supplemented with 10% FBS. ANBL6 and INA-6 culture media was also supplemented with 10 ng/ml IL-6. The OCI-ly10 cell line was cultured using RPMI-1640 media supplemented with 20% human serum. MM.1S, MM.1R, OCI-ly10, Karpas 422, and SU-DHL6 cells were provided by the Dana Farber Cancer Institute. H929, RPMI-8226, GA-10, and Farage cells were from ATCC (Cat #'s CCL-155, CRL-9068, CRL-2392 and CRL-2630 respectively). MOLP-8, EJM, KSM-12-PE, and OPM2 were from DSMZ. The ANBL6 and INA-6 cell lines were provided by the M. D. Anderson Cancer Research Center.\nCompounds were prepared in DMSO at 1000× the highest desired concentration. Master plates were generated consisting of serially diluted compounds in 2- or 3-fold dilutions in 384-well format. For single agent dose response curves, the master plates consisted of 9 individual compounds at 12 concentrations in 2- or 3-fold dilutions. For combination matrices, master plates consisted of individual compounds at 6 or 9 concentrations at 2- or 3-fold dilutions.\nCells were added to 384-well plates 24 hours prior to compound addition such that each well contained 2000 cells in 35 μL of media. Master plates were diluted 100× (1 μL into 100 μL) into 384-well dilution plates containing only cell culture media. 4.5 μL from each dilution plate was added to each assay plate for a final dilution of 1000×. To obtain combination data, two master plates were diluted into the assay plates. Following compound addition, assay plates were kept at 37° C. and 5% CO2 for 72 hours. Thirty microliters of ATPLite (Perkin Elmer) at room temperature was then added to each well. Final amount of ATP was quantified within 30 minutes using ATPLite luminescent read-out on an Envision 2103 Multilabel Reader (Perkin Elmer). Measurements were taken at the top of the well using a luminescence aperture and a read time of 0.1 seconds per well.\nThe Loewe additivity model was used to quantify combination effects. Combinations were ranked initially by Additivity Excess Volume, which is defined as ADD Volume=ΣCX, CY (Idata−ILoewe). where ILoewe(CX, CY) is the inhibition that satisfies (CX/ECX)+(CY/ECY)=1, and ECX,Y are the effective concentrations at ILoewe for the single agent curves. A “Synergy Score” was also used, where the Synergy Score S=log fX log fY ΣIdata(Idata−ILoewe), summed over all non-single-agent concentration pairs, and where log fX,Y is the natural logarithm of the dilution factors used for each single agent. This effectively calculates a volume between the measured and Loewe additive response surfaces, weighted towards high inhibition and corrected for varying dilution factors. An uncertainty σS was calculated for each synergy score, based on the measured errors for the Idata values and standard error propagation."}, "[3]": {"test_system": "H929 multiple myeloma cell line", "test": "Anti-proliferation assay (ATPLite, 72 h)", "type": "cell-based, human", "parameters": "key: S = lnfX·lnfY·ΣIdata(Idata−ILoewe), volume over Loewe additivity", "how_it_was_run": "as §1"}, "[4]": {"test_system": "RPMI-8226 multiple myeloma cell line", "test": "Anti-proliferation assay (ATPLite, 72 h)", "type": "cell-based, human", "parameters": "key: S = lnfX·lnfY·ΣIdata(Idata−ILoewe), volume over Loewe additivity", "how_it_was_run": "as §1"}}, "note": "Counter-ions that a name gives are not always drawn. Like-named read-outs stand apart in the source and are kept apart here."}
{"compound": "COc1cc2c(cc1OC)-c1cc(=Nc3c(C)cc(C)cc3C)n(C)c(=O)n1CC2", "note": "[Trequinsin hydrochloride, 2,3,6,7-tetrahydro-9,10-dimethoxy-3-methyl-2-((2,4,6-trimethylphenyl)imino)-4H-pyrimido(6,1-a)isoquinolin-4-one]", "values": [{"measurement": "synergy (score), PDEi × HE-NECA", "setting": "[1]; 6×6 cross of PDE inhibitor or PDE inhibitor mixture with HE-NECA, MM.1S", "value": 5.7}, {"measurement": "inhibition at 0.377 µM", "setting": "[1]; Homo sapiens, MM1.S, 10 ng/mL IL-6, Trequinsin 0.377 μM, HE-NECA conc. (nM), read-out: percent inhibition of ATP in MM.1S cells", "value": -1.2, "unit": "%"}, {"measurement": "inhibition at 1.13 µM", "setting": "[1]; Homo sapiens, MM1.S, 10 ng/mL IL-6, Trequinsin 1.13 μM, HE-NECA conc. (nM), read-out: percent inhibition of ATP in MM.1S cells", "value": 5.1, "unit": "%"}, {"measurement": "inhibition at 3.39 µM", "setting": "[1]; Homo sapiens, MM1.S, 10 ng/mL IL-6, Trequinsin 3.39 μM, HE-NECA conc. (nM), read-out: percent inhibition of ATP in MM.1S cells", "value": 8.9, "unit": "%"}, {"measurement": "inhibition at 10.2 µM", "setting": "[1]; Homo sapiens, MM1.S, 10 ng/mL IL-6, Trequinsin 10.2 μM, HE-NECA conc. (nM), read-out: percent inhibition of ATP in MM.1S cells", "value": 26, "unit": "%"}, {"measurement": "inhibition at 30.5 µM", "setting": "[1]; Homo sapiens, MM1.S, 10 ng/mL IL-6, Trequinsin 30.5 μM, HE-NECA conc. (nM), read-out: percent inhibition of ATP in MM.1S cells", "value": 95, "unit": "%"}, {"measurement": "inhibition at 0.377 µM", "setting": "[1]; Homo sapiens, MM1.S, 72 h, trequinsin 0.377 μM alone (HE-NECA 0), 72 h, read-out: Percent inhibition of ATP in MM.1S cells", "value": 7.4, "unit": "%"}, {"measurement": "inhibition at 1.13 µM", "setting": "[1]; Homo sapiens, MM1.S, 72 h, trequinsin 1.13 μM alone (HE-NECA 0), 72 h, read-out: Percent inhibition of ATP in MM.1S cells", "value": 0.96, "unit": "%"}, {"measurement": "inhibition at 3.39 µM", "setting": "[1]; Homo sapiens, MM1.S, 72 h, trequinsin 3.39 μM alone (HE-NECA 0), 72 h, read-out: Percent inhibition of ATP in MM.1S cells", "value": 10, "unit": "%"}, {"measurement": "inhibition at 10.17 µM", "setting": "[1]; Homo sapiens, MM1.S, 72 h, trequinsin 10.17 μM alone (HE-NECA 0), 72 h, read-out: Percent inhibition of ATP in MM.1S cells", "value": 26, "unit": "%"}, {"measurement": "inhibition at 30.5 µM", "setting": "[1]; Homo sapiens, MM1.S, 72 h, trequinsin 30.5 μM alone (HE-NECA 0), 72 h, read-out: Percent inhibition of ATP in MM.1S cells", "value": 68, "unit": "%"}, {"measurement": "synergy score", "setting": "[1]; PDE inhibitor crossed with (S) ENBA, MM.1S", "value": 4.56}, {"measurement": "synergy score", "setting": "[1]; PDE inhibitor crossed with ADAC, MM.1S", "value": 6.62}, {"measurement": "synergy score", "setting": "[1]; PDE inhibitor crossed with Chloro-IB-MECA, MM.1S", "value": 5.95}, {"measurement": "synergy score", "setting": "[1]; PDE inhibitor crossed with HE-NECA, MM.1S", "value": 7.85}, {"measurement": "synergy score", "setting": "[1]; in combination with adenosine receptor agonist ADAC, MM.1S", "value": 6.619}, {"measurement": "synergy score", "setting": "[1]; in combination with adenosine receptor agonist CGS-21680, MM.1S", "value": 6.26}, {"measurement": "synergy score", "setting": "[1]; in combination with adenosine receptor agonist HE-NECA, MM.1S", "value": 7.235}, {"measurement": "synergy score", "setting": "[1]; in combination with adenosine receptor agonist regadenoson, MM.1S", "value": 1.85}, {"measurement": "rank of synergy scores among PDE inhibitors", "setting": "[2]", "value": "highest synergy scores"}, {"measurement": "synergy (score), PDEi × HE-NECA", "setting": "[3]; 6×6 cross of PDE inhibitor or PDE inhibitor mixture with HE-NECA, H929", "value": 4.22}, {"measurement": "synergy score", "setting": "[3]; PDE inhibitor crossed with (S) ENBA, H929", "value": 3.38}, {"measurement": "synergy score", "setting": "[3]; PDE inhibitor crossed with ADAC, H929", "value": 3.04}, {"measurement": "synergy score", "setting": "[3]; PDE inhibitor crossed with Chloro-IB-MECA, H929", "value": 2.77}, {"measurement": "synergy score", "setting": "[3]; PDE inhibitor crossed with HE-NECA, H929", "value": 4.34}, {"measurement": "synergy score", "setting": "[3]; in combination with adenosine receptor agonist ADAC, H929", "value": 3.044}, {"measurement": "synergy score", "setting": "[3]; in combination with adenosine receptor agonist CGS-21680, H929", "value": 3.33}, {"measurement": "synergy score", "setting": "[3]; in combination with adenosine receptor agonist HE-NECA, H929", "value": 3.141}, {"measurement": "synergy score", "setting": "[3]; in combination with adenosine receptor agonist regadenoson, H929", "value": 1.99}, {"measurement": "synergy score", "setting": "[4]; in combination with adenosine receptor agonist ADAC, RPMI-8226", "value": 0.9183}, {"measurement": "synergy score", "setting": "[4]; in combination with adenosine receptor agonist CGS-21680, RPMI 8226", "value": 0.72}, {"measurement": "synergy score", "setting": "[4]; in combination with adenosine receptor agonist HE-NECA, RPMI-8226", "value": 0.793}, {"measurement": "synergy score", "setting": "[4]; in combination with adenosine receptor agonist regadenoson, RPMI 8226", "value": 0.4}]}
